The source made the active and inactive calls.
Key:
Type in all cases: functional
[1] = target: Dual specificity tyrosine-phosphorylation-regulated kinase 1A (Homo sapiens, UniProt Q13627);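 note: measured against DYRK1A as one member of a broad kinome profiling panel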
[2] = target: Macrophage-stimulating protein receptor (Homo sapiens, UniProt Q04912); test: Navigating the Kinome. Panel member name: MST1R
[3] = target: Serine/threonine-protein kinase Nek2 (Homo sapiens, UniProt P51955)
[4] = target: 5'-AMP-activated protein kinase catalytic subunit alpha-1 (Homo sapiens, UniProt Q13131)
[5] = target: Rho-associated protein kinase 1 (Homo sapiens, UniProt Q13464);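 note: measured within a broad kinome-wide panel profiling many kinases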
[6] = target: Mitogen-activated protein kinase 9 (Homo sapiens, UniProt P45984);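 note: value from a kinome panel profiling assay, MAPK9 panel entry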
[7] = target: Cyclin-dependent kinase 9 (Homo sapiens, UniProt P50750);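 note: value from the CDK9 entry of a kinome-spanning kinase panel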
[8] = target: Serine/threonine-protein kinase TBK1 (Homo sapiens, UniProt Q9UHD2); test: Navigating the Kinome. Panel member name: TBK1
[9] = target: Proto-oncogene tyrosine-protein kinase receptor Ret (Homo sapiens, UniProt P07949);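 note: measured within a kinome-wide profiling panel, RET as the panel member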
[10] = target: Protein kinase C theta type (Homo sapiens, UniProt Q04759); test: Navigating the Kinome. Panel member name: PRKCQ
[11] = target: Hepatocyte growth factor receptor (Homo sapiens, UniProt P08581);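 note: kinase panel profiling across the kinome, with MET as the panel member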
Focal adhesion kinase 1 = Focal adhesion kinase 1 (Homo sapiens, UniProt Q05397);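 note: measured as one member of a kinome panel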
[12] = target: ALK tyrosine kinase receptor (Homo sapiens, UniProt Q9UM73);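 note: ALK tested as one member of a kinase panel screen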
Activin receptor type-1 = Activin receptor type-1 (Homo sapiens, UniProt Q04771); test: Navigating the Kinome. Panel member name: ACVR1
Aurora kinase A = Aurora kinase A (Homo sapiens, UniProt O14965);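 note: value from the Navigating the Kinome kinase panel profiling, panel entry STK6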
[13] = target: Dual specificity mitogen-activated protein kinase kinase 2 (Homo sapiens, UniProt P36507); test: Navigating the Kinome. Panel member name: MAP2K2
[14] = target: cAMP-dependent protein kinase catalytic subunit alpha (Homo sapiens, UniProt P17612)
[15] = target: Dual specificity tyrosine-phosphorylation-regulated kinase 1B (Homo sapiens, UniProt Q9Y463); test: Navigating the Kinome. Panel member name: DYRK1B
[16] = target: Dual specificity mitogen-activated protein kinase kinase 1 (Homo sapiens, UniProt Q02750); test: Navigating the Kinome. Panel member name: MAP2K1
[17] = target: Leucine-rich repeat serine/threonine-protein kinase 2 (Homo sapiens, UniProt Q5S007);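 note: value from a broad kinome-wide panel profiling study in which LRRK2 was one of the kinases tested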
[18] = target: Ribosomal protein S6 kinase alpha-3 (Homo sapiens, UniProt P51812);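 note: measured within a kinome-wide profiling panel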
[19] = target: Casein kinase I isoform alpha (Homo sapiens, UniProt P48729)
[20] = target: Serine/threonine-protein kinase PAK 4 (Homo sapiens, UniProt O96013);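 note: value obtained within a kinome profiling panel in which PAK4 was one of the panel members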
[21] = target: Receptor-type tyrosine-protein kinase FLT3 (Homo sapiens, UniProt P36888);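 note: FLT3 was tested as one member of a kinome-wide kinase panel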
[22] = target: Calcium/calmodulin-dependent protein kinase type 1 (Homo sapiens, UniProt Q14012)
[23] = target: Tyrosine-protein kinase Blk (Homo sapiens, UniProt P51451);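 note: obtained as one member of a kinome-wide kinase assay panel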
[24] = target: 3-phosphoinositide-dependent protein kinase 1 (Homo sapiens, UniProt O15530);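 note: value comes from the Navigating the Kinome panel, PDPK1 member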
[25] = target: Casein kinase II subunit alpha (Homo sapiens, UniProt P68400)
[26] = target: Serine/threonine-protein kinase PAK 1 (Homo sapiens, UniProt Q13153)
[27] = target: Protein kinase C gamma type (Homo sapiens, UniProt P05129)
[28] = target: Dual specificity tyrosine-phosphorylation-regulated kinase 4 (Homo sapiens, UniProt Q9NR20)
[29] = target: Proto-oncogene tyrosine-protein kinase ROS (Homo sapiens, UniProt P08922);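 note: ROS1 tested as one member of a kinome-wide kinase panel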
[30] = target: Dual specificity tyrosine-phosphorylation-regulated kinase 3 (Homo sapiens, UniProt O43781);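 note: measured as one member of a broad kinase panel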
[31] = target: Serine/threonine-protein kinase DCLK1 (Homo sapiens, UniProt O15075);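 note: affinity for DCLK1 (listed as DCAMKL1) measured as one member of a kinome-wide kinase profiling panel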
[32] = target: Megakaryocyte-associated tyrosine-protein kinase (Homo sapiens, UniProt P42679);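 note: affinity measured as one member of a kinase panel (Navigating the Kinome) against MATK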
[33] = target: Receptor tyrosine-protein kinase erbB-4 (Homo sapiens, UniProt Q15303);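 note: ERBB4 member of a kinome-wide kinase profiling panel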
[34] = target: Tyrosine-protein kinase Srms (Homo sapiens, UniProt Q9H3Y6);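 note: SRMS measured as one member of a kinome-wide kinase profiling panel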
SRSF protein kinase 1 = SRSF protein kinase 1 (Homo sapiens, UniProt Q96SB4);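 note: measured as one member of a kinome-wide kinase profiling panel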
[35] = target: Serine/threonine-protein kinase PLK3 (Homo sapiens, UniProt Q9H4B4)
[36] = target: Homeodomain-interacting protein kinase 4 (Homo sapiens, UniProt Q8NE63)
[37] = target: Serine/threonine-protein kinase pim-3 (Homo sapiens, UniProt Q86V86);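 note: value obtained as one member of a broad kinase panel profiling effort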
[38] = target: Receptor tyrosine-protein kinase erbB-2 (Homo sapiens, UniProt P04626); test: Navigating the Kinome. Panel member name: ERBB2
[39] = target: Homeodomain-interacting protein kinase 2 (Homo sapiens, UniProt Q9H2X6);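 note: measured within a kinome-wide kinase profiling panel, HIPK2 being one panel member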
[40] = target: Lymphokine-activated killer T-cell-originated protein kinase (Homo sapiens, UniProt Q96KB5);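 note: value comes from a kinase panel screen in which TOPK was one of the panel members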

Measured: Ki

Sequence of 5'-AMP-activated protein kinase catalytic subunit alpha-1 (Q13131 whole entry): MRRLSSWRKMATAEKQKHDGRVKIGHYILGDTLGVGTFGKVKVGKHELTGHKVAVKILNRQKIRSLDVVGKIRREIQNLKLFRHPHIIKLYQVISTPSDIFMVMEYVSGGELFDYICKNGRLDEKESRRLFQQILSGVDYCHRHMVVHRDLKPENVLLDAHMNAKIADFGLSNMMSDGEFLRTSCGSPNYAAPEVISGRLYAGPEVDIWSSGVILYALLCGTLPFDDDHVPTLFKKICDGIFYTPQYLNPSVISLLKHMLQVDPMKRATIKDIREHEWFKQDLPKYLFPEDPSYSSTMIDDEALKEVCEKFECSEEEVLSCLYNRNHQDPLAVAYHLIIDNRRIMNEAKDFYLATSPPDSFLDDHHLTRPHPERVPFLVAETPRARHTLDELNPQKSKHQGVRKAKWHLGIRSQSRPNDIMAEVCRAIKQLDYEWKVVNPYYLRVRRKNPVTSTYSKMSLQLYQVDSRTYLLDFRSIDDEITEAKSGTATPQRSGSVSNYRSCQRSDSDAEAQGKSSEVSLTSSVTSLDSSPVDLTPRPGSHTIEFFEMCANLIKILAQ
Sequence of ALK tyrosine kinase receptor (Q9UM73 whole entry): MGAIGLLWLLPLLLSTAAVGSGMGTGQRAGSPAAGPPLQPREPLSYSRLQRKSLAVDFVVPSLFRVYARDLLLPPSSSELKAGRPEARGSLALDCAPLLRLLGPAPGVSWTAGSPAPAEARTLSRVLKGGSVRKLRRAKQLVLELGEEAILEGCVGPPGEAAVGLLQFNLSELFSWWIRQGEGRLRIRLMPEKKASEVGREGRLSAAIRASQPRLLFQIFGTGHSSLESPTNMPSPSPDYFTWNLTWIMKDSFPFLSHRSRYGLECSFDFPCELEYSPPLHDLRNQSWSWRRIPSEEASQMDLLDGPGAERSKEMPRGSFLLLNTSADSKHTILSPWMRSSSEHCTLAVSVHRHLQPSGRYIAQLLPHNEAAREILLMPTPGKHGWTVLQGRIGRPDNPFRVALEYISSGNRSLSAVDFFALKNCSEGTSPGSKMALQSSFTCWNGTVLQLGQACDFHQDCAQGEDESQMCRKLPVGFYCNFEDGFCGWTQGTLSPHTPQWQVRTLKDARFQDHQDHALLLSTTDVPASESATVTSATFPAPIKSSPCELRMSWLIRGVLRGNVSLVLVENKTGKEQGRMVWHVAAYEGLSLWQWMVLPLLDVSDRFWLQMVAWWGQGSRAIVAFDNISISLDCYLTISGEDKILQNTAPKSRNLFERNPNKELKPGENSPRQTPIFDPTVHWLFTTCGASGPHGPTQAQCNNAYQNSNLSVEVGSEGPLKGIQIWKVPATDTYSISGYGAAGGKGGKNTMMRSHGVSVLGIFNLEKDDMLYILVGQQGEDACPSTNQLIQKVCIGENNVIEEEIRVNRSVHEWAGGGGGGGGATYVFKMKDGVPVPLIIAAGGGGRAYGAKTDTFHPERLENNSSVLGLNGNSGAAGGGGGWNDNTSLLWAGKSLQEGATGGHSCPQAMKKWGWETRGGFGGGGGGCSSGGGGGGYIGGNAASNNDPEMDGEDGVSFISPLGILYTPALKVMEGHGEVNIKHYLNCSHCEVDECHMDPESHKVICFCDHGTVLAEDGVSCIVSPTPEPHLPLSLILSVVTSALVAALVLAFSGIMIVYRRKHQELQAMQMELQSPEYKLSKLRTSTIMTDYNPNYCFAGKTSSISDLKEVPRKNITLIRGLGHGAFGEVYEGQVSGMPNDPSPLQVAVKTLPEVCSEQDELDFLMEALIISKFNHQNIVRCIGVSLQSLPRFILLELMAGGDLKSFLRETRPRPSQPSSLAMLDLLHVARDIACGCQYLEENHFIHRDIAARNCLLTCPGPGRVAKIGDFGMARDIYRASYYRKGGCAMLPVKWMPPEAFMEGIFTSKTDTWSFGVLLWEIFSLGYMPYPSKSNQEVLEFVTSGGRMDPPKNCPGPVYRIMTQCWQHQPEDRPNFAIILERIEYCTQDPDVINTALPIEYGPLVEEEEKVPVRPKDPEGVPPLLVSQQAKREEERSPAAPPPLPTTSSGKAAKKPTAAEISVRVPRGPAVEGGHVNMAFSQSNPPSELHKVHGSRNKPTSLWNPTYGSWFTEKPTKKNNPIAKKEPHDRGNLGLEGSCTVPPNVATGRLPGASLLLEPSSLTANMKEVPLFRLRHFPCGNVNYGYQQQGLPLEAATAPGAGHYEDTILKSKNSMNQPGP
Sequence of Serine/threonine-protein kinase PAK 4 (O96013 whole entry): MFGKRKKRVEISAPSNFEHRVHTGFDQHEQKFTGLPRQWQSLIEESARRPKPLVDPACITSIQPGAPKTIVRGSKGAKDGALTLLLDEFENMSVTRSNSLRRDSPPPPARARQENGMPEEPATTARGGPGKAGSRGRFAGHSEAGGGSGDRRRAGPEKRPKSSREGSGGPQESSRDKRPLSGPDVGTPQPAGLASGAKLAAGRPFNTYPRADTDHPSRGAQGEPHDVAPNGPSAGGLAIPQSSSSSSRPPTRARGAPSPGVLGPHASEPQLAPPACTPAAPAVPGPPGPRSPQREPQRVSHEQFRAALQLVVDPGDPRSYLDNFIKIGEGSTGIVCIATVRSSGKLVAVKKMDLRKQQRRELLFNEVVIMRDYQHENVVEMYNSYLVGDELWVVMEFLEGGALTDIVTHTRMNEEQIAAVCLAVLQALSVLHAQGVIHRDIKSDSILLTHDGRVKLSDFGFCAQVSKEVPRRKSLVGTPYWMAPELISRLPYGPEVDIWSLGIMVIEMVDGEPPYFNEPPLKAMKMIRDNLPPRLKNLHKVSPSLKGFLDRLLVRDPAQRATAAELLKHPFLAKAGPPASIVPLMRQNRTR
Sequence of Serine/threonine-protein kinase PLK3 (Q9H4B4 whole entry): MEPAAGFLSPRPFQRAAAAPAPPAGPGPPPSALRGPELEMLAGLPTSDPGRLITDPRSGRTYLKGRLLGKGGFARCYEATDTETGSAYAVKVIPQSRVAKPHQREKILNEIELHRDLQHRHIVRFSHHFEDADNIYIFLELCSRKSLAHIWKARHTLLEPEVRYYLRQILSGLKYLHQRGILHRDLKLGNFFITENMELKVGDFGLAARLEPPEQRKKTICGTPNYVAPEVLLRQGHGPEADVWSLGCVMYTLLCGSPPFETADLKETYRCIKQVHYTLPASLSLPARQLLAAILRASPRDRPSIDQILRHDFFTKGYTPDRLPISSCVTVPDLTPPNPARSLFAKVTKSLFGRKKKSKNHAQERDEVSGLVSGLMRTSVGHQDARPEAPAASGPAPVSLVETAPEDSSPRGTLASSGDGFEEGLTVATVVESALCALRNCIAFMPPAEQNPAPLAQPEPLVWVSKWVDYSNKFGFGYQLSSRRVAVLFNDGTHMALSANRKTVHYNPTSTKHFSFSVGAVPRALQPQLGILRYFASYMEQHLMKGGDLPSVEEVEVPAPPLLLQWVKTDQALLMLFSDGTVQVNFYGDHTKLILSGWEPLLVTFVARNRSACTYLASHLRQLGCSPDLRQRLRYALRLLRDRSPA
Sequence of SRSF protein kinase 1 (Q96SB4 whole entry): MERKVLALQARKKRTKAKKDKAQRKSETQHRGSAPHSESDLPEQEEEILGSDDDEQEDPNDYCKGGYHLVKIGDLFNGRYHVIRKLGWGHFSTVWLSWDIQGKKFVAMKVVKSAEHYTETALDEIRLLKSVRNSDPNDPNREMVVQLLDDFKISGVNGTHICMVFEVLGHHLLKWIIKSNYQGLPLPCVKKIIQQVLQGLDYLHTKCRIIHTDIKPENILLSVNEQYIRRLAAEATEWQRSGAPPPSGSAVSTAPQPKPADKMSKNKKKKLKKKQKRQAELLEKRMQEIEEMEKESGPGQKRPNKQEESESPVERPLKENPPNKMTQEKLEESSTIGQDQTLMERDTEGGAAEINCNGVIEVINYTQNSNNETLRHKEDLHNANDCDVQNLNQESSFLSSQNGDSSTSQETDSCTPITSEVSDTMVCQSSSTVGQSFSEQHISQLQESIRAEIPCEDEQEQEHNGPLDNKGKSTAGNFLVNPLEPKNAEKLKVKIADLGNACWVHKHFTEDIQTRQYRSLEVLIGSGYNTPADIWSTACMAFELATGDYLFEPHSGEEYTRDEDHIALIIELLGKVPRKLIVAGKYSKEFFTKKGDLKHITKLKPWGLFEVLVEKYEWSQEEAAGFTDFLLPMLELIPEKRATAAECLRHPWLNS
Sequence of Dual specificity mitogen-activated protein kinase kinase 1 (Q02750 whole entry): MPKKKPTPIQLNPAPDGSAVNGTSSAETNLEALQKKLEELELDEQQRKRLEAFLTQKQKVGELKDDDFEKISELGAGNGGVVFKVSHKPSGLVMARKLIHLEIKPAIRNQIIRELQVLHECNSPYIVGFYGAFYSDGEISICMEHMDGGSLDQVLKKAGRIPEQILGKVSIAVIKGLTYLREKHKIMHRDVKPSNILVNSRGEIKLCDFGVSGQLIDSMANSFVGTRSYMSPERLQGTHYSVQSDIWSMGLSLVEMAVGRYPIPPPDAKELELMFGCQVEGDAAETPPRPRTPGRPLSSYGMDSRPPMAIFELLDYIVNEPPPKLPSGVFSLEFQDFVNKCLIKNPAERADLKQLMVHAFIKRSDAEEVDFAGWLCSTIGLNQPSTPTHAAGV
Sequence of Dual specificity tyrosine-phosphorylation-regulated kinase 3 (O43781 whole entry): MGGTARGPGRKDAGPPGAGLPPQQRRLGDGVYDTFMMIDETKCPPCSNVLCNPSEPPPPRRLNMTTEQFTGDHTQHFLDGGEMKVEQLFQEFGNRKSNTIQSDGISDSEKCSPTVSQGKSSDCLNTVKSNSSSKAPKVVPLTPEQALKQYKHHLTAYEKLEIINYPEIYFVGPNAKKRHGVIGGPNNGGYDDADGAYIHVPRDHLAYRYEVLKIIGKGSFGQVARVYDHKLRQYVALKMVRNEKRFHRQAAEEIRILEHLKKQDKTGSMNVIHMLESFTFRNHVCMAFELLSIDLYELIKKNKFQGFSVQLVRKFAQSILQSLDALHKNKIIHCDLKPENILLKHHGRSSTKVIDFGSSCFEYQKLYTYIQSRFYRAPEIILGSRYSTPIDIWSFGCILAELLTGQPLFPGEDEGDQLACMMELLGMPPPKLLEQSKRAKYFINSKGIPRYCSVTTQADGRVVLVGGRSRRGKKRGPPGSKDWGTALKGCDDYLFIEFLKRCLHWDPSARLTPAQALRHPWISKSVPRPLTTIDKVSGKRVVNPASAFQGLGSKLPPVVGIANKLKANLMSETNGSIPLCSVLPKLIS

OCc1cc(-c2ccc3[nH]ncc3c2)on1
active: [1] 0.398 µM | [2] 39.8 µM | [3] 39.8 µM | [4] 31.6 µM | [5] 0.398 µM | [6] 79.4 µM | [7] 5.01 µM | [8] 50.1 µM | [9] 50.1 µM | [10] 12.6 µM | [11] 31.6 µM | Focal adhesion kinase 1 63.1 µM | [12] 79.4 µM | Activin receptor type-1 20 µM | Aurora kinase A 15.8 µM | [13] 15.8 µM | [14] 5.01 µM | [15] 0.1 µM | [16] 10 µM | [17] 3.98 µM

CC(C)(O)c1cn(-c2ccc3[nH]ncc3c2)nn1
active: [1] 5.01 µM | [2] 39.8 µM | [4] 6.31 µM | [5] 0.794 µM | [7] 10 µM | [18] 39.8 µM | [8] 79.4 µM | [9] 25.1 µM | [19] 10 µM | [10] 39.8 µM | [20] 100 µM | Focal adhesion kinase 1 50.1 µM | [12] 79.4 µM | Activin receptor type-1 79.4 µM | Aurora kinase A 25.1 µM | [13] 25.1 µM | [14] 10 µM | [15] 2 µM | [21] 50.1 µM | [16] 20 µM | [17] 12.6 µM

NC1CCC(Nc2nccc(-c3c[nH]c4ncccc34)n2)CC1 (configuration not stated)
inactive: [22] > 1.26 µM | [23] > 1.58 µM | [3] > 10 µM | [29] > 2 µM | [32] > 2 µM | [33] > 3.98 µM | [34] > 1.58 µM | [35] > 7.94 µM | [11] > 3.16 µM | [12] > 1.26 µM | [38] > 1.58 µM
active: [1] 0.00316 µM | [4] 0.126 µM | [6] 0.126 µM | [24] 1.26 µM | [18] 0.00501 µM | [25] 2.51 µM | [26] 7.94 µM | [27] 0.158 µM | [28] 1.58 µM | [19] 0.0501 µM | [30] 0.0631 µM | [31] 1 µM | [20] 0.316 µM | SRSF protein kinase 1 1 µM | [36] 2.51 µM | [37] 0.2 µM | [14] 0.0501 µM | [21] 0.0631 µM | [39] 0.0158 µM | [40] 0.631 µM

COC(C(=O)N1Cc2[nH]nc(NC(=O)c3ccc(N4CCN(C)CC4)cc3)c2C1)c1ccccc1 (configuration not stated)
active: [23] 0.0398 µM | [29] 0.00794 µM | [31] 0.0398 µM | [34] 0.0501 µM
inactive: [22] > 2.51 µM | [24] > 3.98 µM | [25] > 6.31 µM | [26] > 10 µM | [27] > 7.94 µM | [28] > 7.94 µM | [30] > 6.31 µM | [32] > 2 µM | [33] > 3.98 µM | SRSF protein kinase 1 > 7.94 µM | [35] > 7.94 µM | [36] > 7.94 µM | [37] > 7.94 µM | [38] > 1.58 µM | [39] > 3.16 µM | [40] > 10 µM
